Measured values published in US11510917B2, “HIF-stabilization and prevention of hyperoxia-induced neonatal lung disease” (CORNELL UNIVERSITY, priority 2016, dated 2022).

How the values were obtained:
[1] = tested on: neonatal mice chronically exposed to hyperoxia; assay: Oxygen-induced lung injury, lung airspace analysis (chord length Lm); type: in vivo, mouse; details: for alveolar enlargement, lung histology: 80% O2, 200 mg/kg i.p. intermittent during oxygen supplementation (Example 3); for protection of alveolar size (Lm) against moderate hyperoxia: about 45% O2, 2- and 5-week time points
Text: For this study we utilized a well-defined murine model of CLD using neonatal mice chronically exposed to hyperoxia for 2 weeks followed by normoxia for an additional 3. Timed pregnant mice were monitored hourly. Within hours of birth litters were pooled before being randomly redistributed to the newly delivered mothers. Experiments were begun on newborns at postnatal day 0. Half of the newborn pups were placed in a chamber designed to deliver variable oxygen concentrations (Biospherix Ltd) and set to 80% O2 (HO) and the other half remained in room air (RA) as age-matched controls. Mothers were rotated every 12 hours to prevent death from acute O2 toxicity. Neonatal CD1 mice also referred to as wild-type mice (Charles River), MCD mice (WBB6F1^−W/Wv) and their mast cell competent litter mates WBB6F1-^+/^+ (congenic controls (CC)) (Jackson Laboratories) were exposed to either HO or RA for 2 weeks and then kept in room air (FiO2 of 0.21) an additional 3 weeks for the 5-week time point. Some CD1 mice (HO and RA) were also maintained 18 weeks in room air for the 20-week time point. Survival and weight were monitored daily. All mice (CD1, MCD, and CC) used in this study were healthy at birth and survived until sacrificed. Unless specifically noted as CC or MCD, mouse experiments were performed with CD1 mice.
Oxygen-induced lung injury and lung airspace analysis. A well-defined murine model of CLD, a.k.a. bronchopulmonary dysplasia, using neonatal mice chronically exposed to hyperoxia followed by normoxia was used for our studies. Timed pregnant CD1 mice (Charles River) were monitored hourly. Within hours of birth litters were pooled before being randomly redistributed to the newly delivered mothers. Half of the newborn pups were immediately placed in a chamber designed to deliver variable oxygen concentrations (Biospherix) and set to 80%, 45% or 30% O2 (hyperoxia) and the other half remained in room air. Mothers were rotated every 12 hrs to prevent death from acute O2 toxicity. Newborn pups were exposed to either hyperoxia or room air for 2 weeks. […] Some animals were then kept in room air for an additional 3 weeks or 18 weeks before analysis. Lungs from mice were fixed at a constant inflation pressure of 25 cm H2O in 10% neutral buffered formalin followed by paraffin embedding. Sections (7 μm) were cut and slides of paraffinized tissue sections were deparaffinized, rehydrated, and washed in distilled water. Sections were stained with hematoxylin and eosin to visualize the structure of the lung. The direct method was used for the accurate estimation of the mean linear intercept length (Lm) (chord length) to assess the mean free distance in the alveoli. This method uses a set of random intercepts and calculates Lm from their frequency distribution and provides results on alveolar size distribution and alveolar surface area. […] On average 30-50 non-overlapping 1 mm^2 fields were analyzed for each lung section. Mean chord length of each alveolus (μm) was measured with the areas of approximately 4,000 individual alveoli/mouse measured in sections from room air mice and about 2,000 individual alveoli/mouse were analyzed in lung sections from hyperoxic mice.
The direct method was used for the accurate estimation of the mean linear intercept length (Lm) (chord length) to assess the mean free distance in the alveoli. […] On average 30-50 non-overlapping 1 mm^2fields were analyzed for each lung section and mean chord length of each alveolus (μm) was measured.

[2] = tested on: neonatal mice chronically exposed to hyperoxia; assay: Pulmonary function test of lung compliance after neonatal hyperoxia; type: in vivo, mouse; details: 80% neonatal hyperoxia; intermittent treatment
Method: Pulmonary function tests (PFTs) were performed in 5- (CD1, MCD and CC) and 20-week old mice (CD1) post-neonatal HO or RA. Briefly, mice were anaesthetized with pentobarbital (100 mg/kg, intraperitoneal; American Pharmaceutical Partners), tracheostomized and mechanically ventilated at a rate of 150 breaths/min, a tidal volume of 10 ml/kg and positive end-expiratory pressure of 2-3 cm H2O using a computer-controlled animal ventilator (Sireq). The following perturbations were used to assess baseline respiratory mechanics and analyzed using Flexivent software (Sireq). Static lung compliance (Cst) was determined using the Salazar-Knowles equation applied to the plateau pressure measurements obtained between total lung capacity and functional residual capacity. Broadband forced oscillations were applied to determine tissue resistance (R) and Newtonian (airway) resistance (Rn) using a constant phase model. Mice used for measuring pulmonary function were not used for histological analyses.

HIF PHD = assay: luc-ODD luciferase reporter, live imaging and organ lysates; type: in vivo, mouse
Method: Detection of luc-ODD luciferase reporter in vivo and in vitro. Live imaging of luciferase activity was performed using Bruker Xtreme small animal x-ray, fluorescence bioluminescence imaging system. Luc-ODD mouse pups at 12 days of age (P12) were divided into appropriate experimental groups identified by ear notches and treated according to the experimental design, i.e., various length of pharmacological treatment (0, 3, 9, 24 hrs), or route of administration (intraperitoneal vs subcutaneous for 3 hrs). […] Ten minutes later, pups (in groups of 2 to 4) were placed in an imaging chamber supplied with a heated pad and inhalation cones for oxygen/isofurane mixture. Ventral and dorsal bioluminescent images were collected for 30 sec followed by white light images taken at autoexposure time. Light and luminescent images where then superimposed and quantitatively analyzed using Bruker MI v7 software. Luciferase activity in mouse organs was detected as follows. […] Tissues were placed in Glo Lysis Buffer (Promega), homogenized with disposable plastic pestles fitted to 1.5 mL microtubes on ice and centrifuged at 20,000×g, 4° C., for 15 min. Protein concentrations of tissue extracts were determined using BCA Protein Assay (Thermo Sci), adjusted to 150 ug (retina), 300 ug (kidney, spleen, lung) or 600 ug (brain, liver) per assay reaction by diluting with Glo Lysis Buffer in a total volume of 100 uL and placed in the wells of white opaque 96-well plate. Diluted extracts were then brought to room temperature, mixed with equal volume (100 uL) of ready-to-use luciferase substrate Bright-Glo Luciferase Assay System (Promega) and luminescence was measured immediately by a luminometer/fluorimeter Victor X2 (PerkinElmer).

HIF-1α = assay: Western blot of HIF-1α protein in mouse organs; type: in vivo
EPO = assay: ELISA of serum EPO; type: in vivo, mouse
Hep3B cells = assay: HIF-1α stabilization and EPO expression in cultured hepatoma cells; type: cell-based, human
lung mast cells = assay: Lung mast cell number after neonatal hyperoxia; type: in vivo, mouse; details: 10 mg/kg, 5-week time point
Text: Lungs from mice (CD1, MCD and CC), not undergoing pulmonary function testing, were fixed at a constant inflation pressure of 25 cm H2O in 10% neutral buffered formalin followed by paraffin embedding. Slides with 7 μm sections were deparaffinized, rehydrated, and washed in distilled water. Some sections were stained with hematoxylin and eosin (H&E) to visualize the structure of the lung. Other sections were stained with an antibody (CC10) (Santa Cruz Biotechnology) (1:50 dilution) to detect club cells, a cell type specific to the airways. Analysis on the alveolar space deliberately avoided airways and blood vessels. For each animal, 5 lung sections were analyzed and quantified as cells per mm^2 of lung tissue. Mast cells were detected in fixed tissue using either the glycoprotein avidin, conjugated to the enzyme horseradish peroxidase (HRP) (Vector Laboratories) or toluidine blue, the classic metachromatic stain for mast cells. Conjugated avidin is a well-defined histochemical method for identifying rodent and human mast cells, which express chondroitin sulfate E proteoglycans and heparin proteoglycans, respectively, in the secretory granules, binding specifically to the proteoglycan granules. Non-specific staining of biotin or biotin-like molecules previously reported […]. Deparaffinized sections were exposed to avidin-HRP 1:500. […]

Mast cells = assay: Mast cell protease (tryptase, chymase) abundance by Western blot; type: cell-based; details: high oxygen (80%)
Text: FIG. 14. […] Mast cells express tryptase and chymase. […] N=4 separate blots, different samples. Aliquots of purified TA and HMC-1 exosomes were homogenized and the protein amounts determined by Lowry assay. Primary antibodies used were: mouse monoclonal TSG 101 (Santa Cruz sc-7964) at 1:500 dilution, mouse monoclonal Alix (Cell Signaling, 2171) at 1:1000 dilution, rabbit polyclonal CD63 (Santa Cruz, sc-15363) at 1:500 dilution, rabbit polyclonal chymase at a 1:2500 dilution (Abcam, 186417), mouse monoclonal mast cell tryptase (Abcam, ab2378) at 1:3000 dilution, rabbit polyclonal elastase (Abcam, ab68672) at 1:1000 dilution, mouse monoclonal mast cell CPA3 (Abcam, ab72575) at 1:500 dilution, and mouse monoclonal GAPDH (Cell Signaling, 14C10) and β-actin (Cell Signaling, 3700) at 1:100,000 dilution. GAPDH and β-actin were used as loading controls.

[3] = kidney and liver, single i.p. injection

Row | half-life of HIF PHD inhibition (HIF PHD; [3]) | organs with highest luminescence (HIF PHD; luc-ODD mouse, ventral and dorsal views, i.p. or s.c. injection) | Compound | alveolar enlargement, lung histology [1] | lung compliance [2] | duration of HIF PHD inhibition (HIF PHD; [3]) | luciferase activity over baseline (HIF PHD; tissue lysates, liver) | increase of HIF-1α protein (HIF-1α; liver and kidney) | increase of HIF-1α protein (HIF-1α; spleen, lung, brain, and retina) | time of maximal increase in serum erythropoietin (EPO) (EPO; after i.p. injection) | dose of maximal effect, serum EPO as marker of HIF-1 activity (EPO; dose response in the mouse) | increase in serum EPO protein concentration (EPO; i.p. 10 mg/kg, P8 pups) | HIF-1α stabilization and expression of EPO mRNA and protein (Hep3B cells) | alveolar size by chord length (Lm) ([1]; 80% O2 first 2 weeks then 3 weeks room air, 10 mg/kg s.c. intermittent, CD1 pups, 5-week time point, 10 mg/kg) | protection of alveolar size (Lm) against moderate hyperoxia ([1]; CD1 pups) | protection of alveolar size (Lm) against moderate hyperoxia ([1]; CD1 pups, listed as RXD) | lung mast cell increase (lung mast cells; moderate (45%) hyperoxia) | lung mast cell increase (lung mast cells; severe (80%) hyperoxia) | hyperoxia-induced tryptase and chymase abundance (Mast cells) | hyperoxia-induced tryptase and chymase abundance (Mast cells; listed as RXD)
1 | – | – | COC(=O)CNC(=O)C(=O)OC [DMOG, N-(2-Methoxy-2-oxaoacetyl)glycine methyl ester] | normalizes alveolar enlargement | maintains normal lung compliance | – | – | – | – | – | – | – | – | – | – | – | – | – | – | –
2 | 48 to 72 h | liver and kidney | Cc1nc(C(=O)NCC(=O)O)c(O)c2ccc(Oc3ccccc3)cc12 [Roxadustat, N-[(4-hydroxy-1-methyl-7-phenoxyisoquinolin-3-yl)carbonyl]glycine] | reduced | – | at least 24 hours | 6 fold | 5-10 fold | two-fold increase | 6 h | 10 mg/kg bodyweight | 8 fold | can be recapitulated | statistically significant normalization in alveolar size | statistically significant normalization in alveolar size | protective | prevents the increase in mast cells | prevents the increase in mast cells | decreases | decreased
